Results taken from US20190248739A1 (NEWLINK GENETICS CORPORATION, priority 2015, published 2019).
Counter-ions that a name gives are not always drawn. Marks after values point to notes of the source that are not given here. Where a SMILES comes first, the peptide text is derived from it. [ ]: non-standard residue; d: D form. dTrp(1-Me) = Cn1cc(C[C@@H](N)C(=O)O)c2ccccc21

How the values were obtained:
[1] = pharmacokinetic testing of indoximod prodrug salts in solid capsule formulation in rats; format: in vivo; details: rats; for increase in indoximod AUC versus equivalent molar dose of indoximod / increase in indoximod Cmax versus equivalent molar dose of indoximod: dose not given (Tables 10.2, 10.3); for % Change Cmax / % Change in AUC: vs indoximod free base, oral capsules
Protocol: These blends were formulated so that each capsule contained the same molar dose of each prodrug. […] The composition and uniformity of a representative sample of capsules from each batch was verified by weight and by LC-MS/MS to determine the average indoximod or prodrug content.
(§1) Rats were fasted 16 h prior to dosing to eliminate any confounding food effects, and food was returned 2 h after dosing.

[2] = solubility of indoximod and its salts in water, buffers and SGF; format: physicochemical; details: 25° C.; for pH of the SGF solution (in brackets): SGF solubility test; for pH of the water solution (in brackets): water solubility test
[3] = pharmacokinetic testing of indoximod prodrugs in liquid formulation in mice; details: mice; for change in indoximod Cmax versus indoximod in suspension: oral, all doses tested (10, 50 and 100 mg/kg)
Protocol: Blood samples (0.1-0.2 mL) were collected from the femoral artery port from rats or by retro-orbital bleeding from mice and plasma was immediately collected by centrifugation and stored on dry ice to avoid prodrug hydrolysis after plasma collection. […] The pharmacokinetic parameters reflect the average of individual parameter values obtained from each individual rat (n) or one common parameter from a single pharmacokinetic curve derived from blood samples obtained from a group of mice (n).

[4] = hygroscopicity and stability of indoximod and its salts; format: physicochemical; details: Table 2, in % (unit assumed)
[5] = pharmacokinetic testing of indoximod salts in capsule formulation in rats; format: in vivo; details: capsules, 37 μmol/kg
Protocol: Three dose levels were investigated: 37, 185 or 500 μmol/kg.
Capsules were manually filled and the composition uniformity of a representative sample of capsules from each batch was verified by weight and by LC-MS/MS to determine the average indoximod content.
as §1

[6] = Table 10.3, dose 37 μmol/kg, salt form free base
[7] = Table 10.1, dose 37 μmol/kg, salt form free base
[8] = Table 10.2, dose 37 μmol/kg, salt form HCl
[9] = Table 10.2, dose 185 μmol/kg, salt form H3PO4
[10] = Table 10.2, dose 185 μmol/kg, salt form HCl
[11] = listed as Mesylate, methanesulfonate

What does the source list for Cn1cc(C[C@@H](NC(=O)CN)C(=O)O)c2ccccc21 [Cpd 05, N^α-(L-glycyl)-1-methyl-D-tryptophan] (H-Gly-[dTrp(1-Me)]-OH)?
increase in indoximod AUC versus equivalent molar dose of indoximod ([1]; capsules): minor and non-statistically significant variations; increase in indoximod Cmax versus equivalent molar dose of indoximod ([1]; capsules): minor and non-statistically significant variations

What does the source list for CS(=O)(=O)O.Cn1cc(C[C@@H](N)C(=O)O)c2ccccc21.Cn1cc(C[C@@H](N)C(=O)O)c2ccccc21 [Hemi-Mesylate]?
Solubility (25° C., mg/mL) SGF [2]: 6.0 mg/mL; pH of the SGF solution (in brackets) [2]: 1.84; Solubility (25° C., mg/mL) Water [2]: 5.5 mg/mL; pH of the water solution (in brackets) [2]: 2.34

Which “increase in indoximod AUC versus equivalent molar dose of indoximod” value ([1]; capsules, hydrochloride) does the source give for Cn1cc(C[C@@H](N)C(=O)OCC(O)CO)c2ccccc21 (stereo partly drawn) [NLG-1558, 2,3-dihydroxypropyl 1-methyl-D-tryptophanate hydrochloride] here?
Its value is “less significant increases”.

What about the “increase in indoximod Cmax versus equivalent molar dose of indoximod” value ([1]; capsules, hydrochloride) of the same compound?
The value was “less significant increases”.

What does the source list for CCOC(=O)[C@@H](Cc1cn(C)c2ccccc12)NC(=O)[C@@H](N)CC(C)C.Cl [NLG-1564, ethyl N^α-(L-leucyl)-1-methyl-D-tryptophanate hydrochloride]?
change in indoximod AUC compared to indoximod ([1]; capsules, 500 μmol/kg): minor increase; change in indoximod Cmax compared to indoximod ([1]; capsules, 500 μmol/kg): minor increase; increase in indoximod Cmax versus indoximod ([1]; capsules, 37-185 μmol/kg): significant increases

For CCOC(=O)[C@@H](Cc1cn(C)c2ccccc12)NC(=O)C[C@H](N)C(=O)OC.Cl [NLG-1585, methyl N^4-((R)-1-ethoxy-3-(1-methyl-1H-indol-3-yl)-1-oxopropan-2-yl)-L-asparaginate hydrochloride], which “increase in indoximod AUC versus equivalent molar dose of indoximod” value ([1]; capsules) is on record?
The value was “minor and non-statistically significant variations”.

And the “increase in indoximod Cmax versus equivalent molar dose of indoximod” value ([1]; capsules)?
Its value is “minor and non-statistically significant variations”.

Which “change in indoximod AUC versus indoximod” value ([3]; oral, 10, 50 and 100 mg/kg, percentage of increase decreases at higher doses) does the source give for Cn1cc(C[C@@H](N)C(=O)OCC(O)CO)c2ccccc21.O=P(O)(O)O (stereo partly drawn) [NLG-1626, (2R)-1-(2,3-dihydroxypropoxy)-3-(1-methyl-1H-indol-3-yl)-1-oxopropan-2-dihydrogen phosphate] here?
Its value is “dose dependent increase”.

What about the “change in indoximod Cmax versus indoximod in suspension” value [3] of the same compound?
Its value is “significant increase”.

Which results are given for Cn1cc(C[C@@H](N)C(=O)OCC(O)CO)c2ccccc21 (stereo partly drawn) [NLG-1627, (2R)-1-(2,3-dihydroxypropoxy)-3-(1-methyl-1H-indol-3-yl)-1-oxopropan-2-aminium methanesulfonate]?
increase in indoximod AUC versus equivalent molar dose of indoximod ([1]; capsules, methanesulfonate): decrease; increase in indoximod Cmax versus equivalent molar dose of indoximod ([1]; capsules, methanesulfonate): decrease

Which results are given for Cn1cc(C[C@@H](N)C(=O)OCC(O)CO)c2ccccc21 (stereo partly drawn) [NLG-1628, (2R)-1-(2,3-dihydroxypropoxy)-3-(1-methyl-1H-indol-3-yl)-1-oxopropan-2-aminium sulfate]?
increase in indoximod AUC versus equivalent molar dose of indoximod ([1]; capsules): less significant increases; increase in indoximod Cmax versus equivalent molar dose of indoximod ([1]; capsules): less significant increases

For CCOC(=O)[C@@H](Cc1cn(C)c2ccccc12)NC(=O)[C@@H](N)CC(C)C.O=P(O)(O)O [NLG-1665], which “change in indoximod Cmax versus indoximod in suspension” value [3] is on record?
The value was “significant increase”.

What about the “increase in indoximod Cmax versus indoximod” value ([1]; capsules, 37-185 μmol/kg) of the same compound?
The value was “significant increases”.

With CCOC(=O)[C@@H](Cc1cn(C)c2ccccc12)NC(=O)[C@@H](N)CC(C)C [NLG-1666, (S)-1-(((R)-1-ethoxy-3-(1-methyl-1H-indol-3-yl)-1-oxopropan-2-yl)amino)-4-methyl-1-oxopentan-2-aminium methanesulfonate] as the compound, how does the “increase in indoximod Cmax versus indoximod” value ([1]; capsules, 37-185 μmol/kg, methanesulfonate) read?
The value was “significant increases”.

Which “% Change Cmax” value [1, 6] does the source give for CCOC(=O)[C@@H](Cc1cn(C)c2ccccc12)NC(=O)[C@@H](N)CCC(N)=O [NLG-1672] (H-Gln-[dTrp(1-Me)]-OEt) here?
The value was 5%.

What about the “% Change in AUC” value [1, 6] of the same compound?
Its value is −16%.

For Cn1cc(C[C@@H](NC(=O)[C@@H](N)CCCCN)C(=O)O)c2ccccc21 [NLG-1676] (H-Lys-[dTrp(1-Me)]-OH), which “% Change Cmax” value [1, 7] is on record?
Its value is −17%.

And the “% Change in AUC” value [1, 7]?
The value was −13%.

Which results are given for CCOC(=O)[C@@H](Cc1cn(C)c2ccccc12)NC(=O)[C@@H](N)CC(C)C [NLG-1691, ethyl N^α-((S)-2-(λ^4-azanyl)-4-methylpentanoyl)-1-methyl-D-tryptophanate sulfate]?
increase in exposure (AUC) of indoximod versus indoximod ([1]; capsules, 37-185 μmol/kg): did not result in a significant increase; increase in indoximod Cmax versus indoximod ([1]; capsules, 37-185 μmol/kg): did not result in a significant increase

For CCOC(=O)[C@@H](Cc1cn(C)c2ccccc12)NC(=O)[C@@H](N)CCSC [NLG-3272, ethyl N^α-(L-methionyl)-1-methyl-D-tryptophanate] (H-Met-[dTrp(1-Me)]-OEt), which “change in indoximod AUC versus indoximod” value ([1]; capsules, 37-500 μmol/kg) is on record?
The value was “statistically significant increase”.

What about the “change in indoximod Cmax versus indoximod” value ([1]; capsules, 37-500 μmol/kg) of the same compound?
Its value is “statistically significant increase”.

For CSCC[C@H](N)C(=O)N[C@H](Cc1cn(C)c2ccccc12)C(=O)O [NLG-3380] (H-Met-[dTrp(1-Me)]-OH), which “% Change Cmax” value [1, 8] is on record?
Its value is 16%.

And the “% Change in AUC” value [1, 8]?
Its value is 24%.

And the “% Change Cmax” value [1, 9]?
Its value is 118%.

And the “% Change in AUC” value [1, 9]?
The value was 66%.

What about the “% Change Cmax” value [1, 10] of the same compound?
The value was 345%.

What about the “% Change in AUC” value [1, 10] of the same compound?
Its value is 181%.

Which results are given for Cn1cc(C[C@@H](NC(=O)[C@@H](N)CCCCN)C(=O)O)c2ccccc21 [N^α-(L-lysyl)-1-methyl-D-tryptophan] (H-Lys-[dTrp(1-Me)]-OH)?
increase in indoximod AUC versus equivalent molar dose of indoximod ([1]; capsules): minor and non-statistically significant variations; increase in indoximod Cmax versus equivalent molar dose of indoximod ([1]; capsules): minor and non-statistically significant variations

For O=S(=O)(O)O [Sulfate], which “Hygroscopicity (0-80% RH)” value [4] is on record?
Its value is 3.4.

With CCOC(=O)[C@@H](Cc1cn(C)c2ccccc12)NC(=O)[C@@H](N)CCC(N)=O [ethyl N^α-(L-glutaminyl)-1-methyl-D-tryptophanate] (H-Gln-[dTrp(1-Me)]-OEt) as the compound, how does the “increase in indoximod AUC versus equivalent molar dose of indoximod” value ([1]; capsules) read?
Its value is “minor and non-statistically significant variations”.

What about the “increase in indoximod Cmax versus equivalent molar dose of indoximod” value ([1]; capsules) of the same compound?
Its value is “minor and non-statistically significant variations”.

Which results are given for Cn1cc(C[C@@H](N)C(=O)O)c2ccccc21 [indoximod CH3SO3H, (R)-1-carboxy-2-(1-methyl-1H-indol-3-yl)ethan-1-aminium methanesulfonate]?
Hygroscopicity (0-80% RH) [4, 11]: 0.12*; % Increase over indoximod Free Base (AUC) ([5]; methanesulfonate): 38%; % Increase over indoximod Free Base (Cmax) ([5]; methanesulfonate): 28%; AUC(0 −> ∞) ([5]; methanesulfonate): 537 ± 194 µM·h; Cmax ([5]; methanesulfonate): 20.3 ± 2 µM; pH of the SGF solution (in brackets) [2, 11]: 1.43; Solubility (25° C., mg/mL) SGF [2, 11]: 6.0 mg/mL; pH of the water solution (in brackets) [2, 11]: 1.84; Solubility (25° C., mg/mL) Water [2, 11]: 5.1 mg/mL

For Cn1cc(C[C@@H](N)C(=O)O)c2ccccc21 [indoximod H2SO4, (R)-1-carboxy-2-(1-methyl-1H-indol-3-yl)ethan-1-aminium hydrogen sulfate], which “% Increase over indoximod Free Base (AUC)” value ([5]; hydrogen sulfate) is on record?
Its value is 42%.

And the “% Increase over indoximod Free Base (Cmax)” value ([5]; hydrogen sulfate)?
Its value is 42%.

And the “AUC(0 −> ∞)” value ([5]; hydrogen sulfate)?
Its value is 553 ± 196 µM·h.

And the Cmax ([5]; hydrogen sulfate)?
Its Cmax is 22.6 ± 7 µM.
